Patent publication US8883793B2, “Tubulin inhibitors and methods of using the same” (Development Center for Biotechnology, priority 2010, dated 2014)

System: KB cell
Assay: MTS assay, growth inhibition of KB cells
Format: cell-based
Details: Homo sapiens, at 10 μM concentration, incubated for 72 h, read-out: Inhibition rate (%) (growth inhibition rate of MTS assay)
Experimental: MTS assay was performed in determining the growth inhibition of cancer cells. MTS ((3-(4,5-dimethylthiazol-2-yl)-5-(3-carboxymethoxyphenyl)-2-(4-sulfophenyl)-2H-tetrazolium)), in the presence of phenazine methosulfate (PMS) and reductases, produces a formazan product that has an absorbance maximum at 490-500 nm. MTS assays (and closely related MTT assay) are commonly used to measure cell viabilities or survivals.
Briefly, KB/Hela, NCI-H460, A375, Colo205, HCT-116, U937, MCF-7, MDA-MB-231, A549, H1975 cells were seeded into 96-well plate at 4000, 4000, 2000, 2000, 2000 cells/well. After 24 h for attachment, test compound was added into each well and incubated for 72 h. A total of 20 μl of MTS reaction reagent containing the MTS (Promega, Madison, Wis.) and PMS in a ratio of 20:1 was added into each well to react with dehydrogenase enzyme in survival cells. After 3 h, the absorbance at 490 nm was monitored using Emax precision microplate reader (Molecular Devices, Sunnyvale, Calif.).
The growth inhibition rate of MTS assay at KB cell of these compounds (at 10 μM concentration) are list in Table 5.

Row | SMILES | inhibition at 10 µM
1 | O=C(/C=C/c1ccccc1)Nc1ncc(Cc2ccccc2)s1 [Compound 3, N-(5-Benzyl-thiazol-2-yl)-3-phenyl-acrylamide] | 94.3%
2 | O=C(/C=C/c1ccccc1)Nc1ncc(/C=C/c2ccccc2)cn1 [Compound 96, 3-Phenyl-N-(5-styryl-pyrimidin-2-yl)-acrylamide] | 96.8%
3 | COc1ccc(Cc2cnc(NC(=O)CCc3ccncc3)s2)cc1 [Compound 16, N-[5-(4-Methoxy-benzyl)-thiazol-2-yl]-3-pyridin-4-yl-propionamide] | 62%
4 | O=C(CCc1ccccc1)Nc1ncc(Cc2c(F)c(F)c(F)c(F)c2F)s1 [Compound 34, N-(5-Pentafluorophenylmethyl-thiazol-2-yl)-3-phenyl-propionamide] | 92.8%
5 | O=C(CCc1cccnc1)Nc1ncc(Sc2ccccc2)s1 [Compound 66, N-(5-Phenylsulfanyl-thiazol-2-yl)-3-pyridin-3-yl-propionamide] | 93.3%
6 | COc1ccc(Cc2cnc(NC(=O)CCc3ccc(F)cc3)s2)cc1OC [Compound 18, N-[5-(3,4-Dimethoxy-benzyl)-thiazol-2-yl]-3-(4-fluoro-phenyl)-propionamide] | 96.6%
7 | COc1ccc(Cc2nnc(NC(=O)CCc3ccc(C)o3)s2)cc1 [Compound 88, N-[5-(4-Methoxy-benzyl)-[1,3,4]thiadiazol-2-yl]-3-(5-methyl-furan-2-yl)-propionamide] | 93.5%
8 | O=C(CCc1ccc(F)cc1)Nc1ncc(Cc2ccc3c(c2)OCO3)s1 [Compound 7, N-(5-Benzo[1,3]dioxol-5-ylmethyl-thiazol-2-yl)-3-(4-fluoro-phenyl)-propionamide] | 91.7%
9 | COc1cccc(-c2ccc(NC(=O)CCc3ccc(C)o3)nc2)c1OC [Compound 115, N-[5-(2,3-Dimethoxy-phenyl)-pyridin-2-yl]-3-(5-methyl-furan-2-yl)-propionamide] | 95.8%
10 | COc1cccc(CCC(=O)Nc2ncc(Cc3ccc(OC(=O)OCc4ccccc4)c(OC)c3)s2)c1 [Compound 43, Carbonic acid benzyl ester 2-methoxy-4-{2-[3-(3-methoxy-phenyl)-propionylamino]-thiazol-5-ylmethyl}-phenyl ester] | 95.6%
11 | O=C(CCc1ccccc1)Nc1ccc(-c2ccc(F)cc2)cn1 [Compound 113, N-[5-(4-Fluoro-phenyl)-pyridin-2-yl]-3-phenyl-propionamide] | 97.1%
12 | O=C(CCc1ccc(-c2ccccc2)cc1)Nc1ncc(Sc2ccccc2)s1 [Compound 73, 3-Biphenyl-4-yl-N-(5-phenylsulfanyl-thiazol-2-yl)-propionamide] | 97%
13 | O=C(CCc1cccnc1)Nc1ncc(Cc2ccc3c(c2)OCO3)s1 [Compound 8, N-(5-Benzo[1,3]dioxol-5-ylmethyl-thiazol-2-yl)-3-pyridin-3-yl-propionamide] | 90.6%
14 | O=C(CCc1ccccc1)Nc1ccc(SCc2ccccc2)cn1 [Compound 86, N-(5-Benzylsulfanyl-pyridin-2-yl)-3-phenyl-propionamide] | 92.8%
15 | O=C(CCc1ccccc1)Nc1ccc(-c2ccccc2)cn1 [Compound 110, 3-Phenyl-N-(5-phenyl-pyridin-2-yl)-propionamide] | 97%
16 | COc1cccc(CCC(=O)Nc2ncc(Cc3ccc(OC)c(OC)c3)s2)c1 [Compound 29, N-[5-(3,4-Dimethoxy-benzyl)-thiazol-2-yl]-3-(3-methoxy-phenyl)-propionamide] | 96.6%
17 | COc1ccc(CCC(=O)Nc2ncc(Cc3ccc(OC)cc3)s2)cc1 [Compound 15, N-[5-(4-Methoxy-benzyl)-thiazol-2-yl]-3-(4-methoxy-phenyl)-propionamide] | 93%
18 | COc1ccc(Cc2cnc(NC(=O)CCc3ccc(C)o3)s2)cc1OC [Compound 31, N-[5-(3,4-Dimethoxy-benzyl)-thiazol-2-yl]-3-(5-methyl-furan-2-yl)-propionamide] | 95.8%
19 | O=C(Nc1ncc(Cc2ccc(F)c(F)c2)s1)OCc1ccccc1 [Compound 32, [5-(3,4-Difluoro-benzyl)-thiazol-2-yl]-carbamic acid benzyl ester] | 52.7%
20 | COc1cccc(N2CCN(c3cnc(NC(=O)CCc4ccccc4)s3)CC2)c1 [Compound 76, N-{5-[4-(3-Methoxy-phenyl)-piperazin-1-yl]-thiazol-2-yl}-3-phenyl-propionamide] | 95%
21 | COc1cccc(CCC(=O)Nc2ncc(Cc3ccc(C(F)(F)F)cc3)s2)c1 [Compound 48, 3-(3-Methoxy-phenyl)-N-[5-(4-trifluoromethyl-benzyl)-thiazol-2-yl]-propionamide] | 95.3%

Row | SMILES | inhibition at 10 µM
22 | COc1cccc(CCC(=O)Nc2ncc(Cc3c(F)c(F)c(F)c(F)c3F)s2)c1 [Compound 35, 3-(3-Methoxy-phenyl)-N-(5-pentafluorophenylmethyl-thiazol-2-yl)-propionamide] | 90.4%
23 | O=C(Nc1ncc(-c2ccccc2)cn1)OCc1ccccc1 [Compound 108, (5-Phenyl-pyrimidin-2-yl)-carbamic acid benzyl ester] | 96.9%
24 | O=C(CCc1ccccc1)Nc1ncc(SCc2ccccc2)s1 [Compound 75, N-(5-Benzylsulfanyl-thiazol-2-yl)-3-phenyl-propionamide] | 82.5%
25 | COc1ccc(CCC(=O)Nc2ncc(Cc3ccc(OC)c(OC)c3)s2)cc1 [Compound 20, N-[5-(3,4-Dimethoxy-benzyl)-thiazol-2-yl]-3-(4-methoxy-phenyl)-propionamide] | 93.4%
26 | O=C(CCc1cccnc1)Nc1ncc(Cc2ccc(F)c(F)c2)s1 [Compound 27, N-[5-(3,4-Difluoro-benzyl)-thiazol-2-yl]-3-pyridin-3-yl-propionamide] | 91.2%
27 | Cc1ccc(CCC(=O)Nc2ccc(Sc3ccccc3)cn2)o1 [Compound 80, 3-(5-Methyl-furan-2-yl)-N-(5-phenylsulfanyl-pyridin-2-yl)-propionamide] | 79.4%
28 | COc1cccc(CCC(=O)Nc2ncc(Cc3ccc4ccccc4c3)s2)c1 [Compound 38, 3-(3-Methoxy-phenyl)-N-(5-naphthalen-2-ylmethyl-thiazol-2-yl)-propionamide] | 94.2%
29 | Cc1ccc(CCC(=O)Nc2cnc(-c3ccccc3)cn2)o1 [Compound 122, 3-(5-Methyl-furan-2-yl)-N-(5-phenyl-pyrazin-2-yl)-propionamide] | 80.8%
30 | O=C(CCc1cccnc1)Nc1ncc(Cc2ccc(-c3ccccc3)cc2)s1 [Compound 40, N-(5-Biphenyl-4-ylmethyl-thiazol-2-yl)-3-pyridin-3-yl-propionamide] | 58.8%
31 | O=C(CCc1cccnc1)Nc1ncc(Cc2c(F)c(F)c(F)c(F)c2F)s1 [Compound 36, N-(5-Pentafluorophenylmethyl-thiazol-2-yl)-3-pyridin-3-yl-propionamide] | 94.3%
32 | COc1ccc2cc(Cc3cnc(NC(=O)CCc4ccc(C)o4)s3)ccc2c1 [Compound 19, N-[5-(6-Methoxy-naphthalen-2-ylmethyl)-thiazol-2-yl]-3-(5-methyl-furan-2-yl)-propionamide] | 94.1%
33 | Cc1ccc(CCC(=O)Nc2ccc(-n3ccc4ccccc43)cn2)o1 [Compound 78, N-(5-Indol-1-yl-pyridin-2-yl)-3-(5-methyl-furan-2-yl)-propionamide] | 93.9%
34 | COc1ccc2cc(Cc3cnc(NC(=O)CCc4ccccc4)s3)ccc2c1 [Compound 14, N-[5-(6-Methoxy-naphthalen-2-ylmethyl)-thiazol-2-yl]-3-phenyl-propionamide] | 89.5%
35 | O=C(CCc1cccc(F)c1)Nc1ncc(Cc2ccc3ccccc3c2)s1 [Compound 37, 3-(3-Fluoro-phenyl)-N-(5-naphthalen-2-ylmethyl-thiazol-2-yl)-propionamide] | 94.4%
36 | Cc1ccc(CCC(=O)Nc2ncc(-c3ccccc3)n2C)o1 [Compound 91, 3-(5-Methyl-furan-2-yl)-N-(1-methyl-5-phenyl-1H-imidazol-2-yl)-propionamide] | 96%
37 | COc1ccc(Cc2cnc(NC(=O)C(C)Cc3ccc(F)cc3)s2)cc1 (stereo not drawn) [Compound 57, 3-(4-Fluoro-phenyl)-N-[5-(4-methoxy-benzyl)-thiazol-2-yl]-2-methyl-propionamide] | 93.2%
38 | O=C(CCc1cccnc1)Nc1ncc(Cc2ccc3ccccc3c2)s1 [Compound 24, N-(5-Naphthalen-2-ylmethyl-thiazol-2-yl)-3-pyridin-3-yl-propionamide] | 95.2%
39 | O=C(CCc1ccccc1)Nc1ncc(Sc2ccccc2)s1 [Compound 67, 3-Phenyl-N-(5-phenylsulfanyl-thiazol-2-yl)-propionamide] | 96.6%
40 | COc1ccc(-c2cnc(NC(=O)CCc3ccc(C)o3)nc2)c(OC)c1 [Compound 107, N-[5-(2,4-Dimethoxy-phenyl)-pyrimidin-2-yl]-3-(5-methyl-furan-2-yl)-propionamide] | 97%
41 | COc1cc(Cc2cnc(NC(=O)CCc3ccccc3)s2)ccc1OC(=O)OCc1ccccc1 [Compound 41, Carbonic acid benzyl ester 2-methoxy-4-[2-(3-phenyl-propionylamino)-thiazol-5-ylmethyl]-phenyl ester] | 95.8%
42 | COc1ccc(Cc2cnc(NC(=O)CCc3ccc(-c4ccccc4)cc3)s2)cc1 [Compound 51, 3-Biphenyl-4-yl-N-[5-(4-methoxy-benzyl)-thiazol-2-yl]-propionamide] | 96.1%
